Results taken from patent US20090227487A1, “METHODS FOR THE CONTROL OF MACROPHAGE-ASSOCIATED INFLAMMATION” (priority 2008, published 2009).

Columns and labels:
Type in all cases: cell-based, murine
[1] = test system: Raw 264.7 macrophages; assay: PMMA particle-induced TNF-α release from macrophages preincubated with MyD88 inhibitory peptide or control peptide (ELISA); conditions: 100 μM peptide, 24 h preincubation, PMMA particles 0.30% v/v, p<0.01
Procedure: MyD88 inhibitory peptide experiments: The murine monocyte/macrophage cell line Raw 264.7 was cultured in DMEM containing 10% (v/v) FBS (5% CO2, 37° C.). Cells were plated in 24-well tissue culture plates at 1×10^5 cells/well in 1 ml of media with serum and allowed to adhere for 24 hours. […] Following the preincubation period in each group, PMMA particles (Polysciences, 1-10 μm) were added at a dose of 0.30% v/v. Each group was plated in triplicate and the experiment was repeated three times.
Quantification of TNF-α release: Macrophages were exposed to PMMA particles and samples from the culture media were collected at 1, 4, and 12 hours post challenge. TNF-α levels were quantified using ELISA kits. Data were analyzed by ANOVA.
(§1) Preparation of particles: PMMA particles were washed 5× with 70% ethanol and incubated overnight with shaking at 4° C. The particles were then washed 3× with DPBS and resuspended to a concentration of 16% v/v. The particles were free of endotoxin using a high-sensitivity Limulus amoebocyte lysate assay (BioWhittaker).

[2] = test system: Raw 264.7 macrophages; assay: LPS-induced TNF-α release from macrophages with or without polymyxin B (ELISA); conditions: 12 h
Procedure: (§2) Polymyxin B preparation: Polymyxin B was prepared fresh before each use and added to cell cultures at a concentration of 10 μg/ml.
Raw264.7 macrophage cell culture experiments: The murine monocyte/macrophage cell line Raw 264.7 was cultured in DMEM containing 10% (v/v) FBS (5% CO2, 37° C.). Cells were plated in 24-well tissue culture plates at 1×10^5 cells/well in 1 ml of media with serum and allowed to adhere for 24 hours. The media was then replaced with 1 ml of media containing one of four conditions: 1) media alone; 2) 10 μg/ml of polymyxin B; 3) 500 pg/ml of LPS (E. coli 055:B5, Sigma); 4) 500 pg/ml LPS and 10 μg/ml polymyxin B. TNF-α release was measured at 12 h after incubation using ELISA. Each group was plated in triplicate and the experiment was repeated two times. Data were analyzed by ANOVA. A p-value <0.05 was considered significant.

[3] = test system: Raw 264.7 macrophages; assay: PMMA particle-induced TNF-α release from macrophages with or without polymyxin B (ELISA); conditions: 0.30% PMMA particles plus 10 μg/ml polymyxin B
Procedure: as §1, §2
Quantification of TNF-α release with wear debris particles: Macrophages were cultured as above. The media was then replaced with 1 ml of media containing one of three conditions: 1) media alone; 2) PMMA particles at a dose of 0.30% v/v; 3) 0.30% PMMA particles plus 10 μg/ml of polymyxin B. TNF-α levels were measured at 1, 4, and 12 hours post challenge.

Substance | decrease of particle-induced TNF-α release ([1]; 4 h post challenge) [%] | decrease of particle-induced TNF-α release ([1]; 12 h post challenge) [%] | TNF-α levels ([2]; 500 pg/ml LPS plus 10 μg/ml polymyxin B) [pg/mL] | TNF-α release compared to macrophages alone ([2]; 10 μg/ml polymyxin B alone, no LPS) | effect on particle-induced TNF-α release ([3]; 4 h) | decrease of particle-induced TNF-α release ([3]; 12 h, non-significant) [%] | effect on particle-induced TNF-α release ([3]; overall statement)
MyD88 inhibitory peptide: MyD88 homodimerization inhibitory peptide (Imgenex), which binds the MyD88 monomer, blocking MyD88 activation; possibly DRQIKIWFQNRRMKWKKRDVLPGT of b57 | 63 | 32 |  |  |  |  | 
Polymyxin B |  |  | 1120 | no significant difference | did not alter | 25 | no significant effect
